Structures can show the parent of a compound that is named as a salt. Where two headings read alike, the source gives them in different places. Each block holds one molecule with its values, some of them ahead of it.
What was measured:
α4β2 nicotine receptor = α4β2 nicotine receptor (Rattus norvegicus, UniProt P09483+P12390); experiment: Test A: [3H]cytisine binding
dopamine D2 receptors = dopamine D2 receptors (Homo sapiens, UniProt P14416); experiment: Binding to dopamine D2 receptors
dopamine transporter = dopamine transporter (Homo sapiens, UniProt Q01959); experiment: Binding to dopamine transporter sites
serotonin transporter = serotonin transporter (Homo sapiens, UniProt P31645); experiment: Binding to serotonin transporter sites
[1] = test system: nicotinic acetylcholine receptor (nAChR); experiment: Test C: 86Rb+ efflux from rat cortical synaptosomes; type: cell-based
striatal synaptosomes = experiment: Test D: striatal [3H]dopamine release; type: cell-based, rat
hippocampal synaptosomes = experiment: Test E: [3H]ACh release; type: cell-based, rat
Protocol: Drug-induced release of [^3H]ACh from hippocampal synaptosomes was measured as described by Sullivan et al. (1997). (J. Pharmacol. Exptl. Ther. 283: 235-246). The F4 synaptosomal fraction was washed with Kreb's buffer containing 118.5 mM NaCl, 25 mM NaHCO3, 1.2 mM KCl, 1.2 mM KH2PO4, 2.5 mM CaCl2, 2.5 mM MgCl2, 10 mM glucose gassed with 95% O2/5% CO2 to pH 7.4 and re-suspended at 1 mg protein/mL. The synaptosomes were loaded with [^3H]choline by incubation with 0.8 μM [^3H]choline (2 Ci/mmol). Aliquots of the incubation mixture were then loaded into the perfusion chamber of a Brandell harvester and perfused with Kreb's buffer (37° C.) at a flow rate of 0.25 mL/min. Three-minute fractions were collected and measured for radioactivity. Drugs for study were administered as 20-s pulses. The [^3H]ACh release evoked by study compounds was normalized to (−)-nicotine-evoked release and to the total radioactivity accumulated by synaptosomes. Evoked release of [^3H]ACh from rat hippocampal synaptosomes was measured as the area under the peak above base release. The EC50 value is determined by nonlinear least squares regression analysis.

[2] = test system: ovariectomized female rats; experiment: Test F: object recognition memory test; type: in vivo, rat
[3] = target: α4β2 nicotinic acetylcholine receptor subtype (Rattus norvegicus, UniProt P09483+P12390); conditions: cited from earlier work
[4] = target: neuronal [3H]-cytisine binding site (Homo sapiens, UniProt P17787+P43681); conditions: read-out: Ki, neuronal [3H]-cytisine binding site; cited from earlier work
nerve-injured mice = experiment: Test G: Chung model of neuropathic pain, inhibition of tactile sensitivity; type: in vivo, mouse
Protocol: After hemostasis is confirmed, the wound is sutured with 3-0 silk thread and the skin closed with sterile wound clips. The animals are fully mobile within thirty minutes of cessation of anesthetic. As a control, in a separate group of animals, a sham surgery identical to the above (but without nerve ligation) is performed. Nociception is evaluated by responsiveness to multiple applications (10 per hindpaw) of a single vF filament to the plantar surface of each hind paw. When the stimulus is of sufficient force, the mouse will lick, withdraw and/or shake the paw; this action represents the behavioral endpoint. In nerve-injured mice, a vF filament (#3.61) exerting 3.3 mN of force elicited 66±1.3% responsiveness on the paw ipsilateral to the injury.
Inhibition of Tactile Sensitivity. Varying doses of the compounds are administered to test for inhibition of tactile sensitivity. Percent inhibition is determined relative to the mean number of paw withdrawals (PW) elicited by force and according to the following equation: [formula] Each mouse serves as its own control.
Three groups of animals were used for this experiment. Animals in each group received an intrathecal injection of physiological saline to assess the control response. […] The responses were assessed as described above.

Male Wistar rats = conditions: rat, in vivo
α7 subtype = α7 subtype (Homo sapiens, UniProt P36544); conditions: read-out: Ki at the α7 subtype; cited from earlier work
[5] = test system: nicotinic acetylcholine receptor as PC12 cells; conditions: cited from earlier work
[6] = target: human muscle nicotinic acetylcholine receptor subtype (Homo sapiens, UniProt P02708+P07510+P11230+Q07001); conditions: cited from earlier work
[7] = rat brain, compounds tested in racemic form, read-out: Ki-[3H]Cytisine

Sequence of α4β2 nicotine receptor (P09483 31-630): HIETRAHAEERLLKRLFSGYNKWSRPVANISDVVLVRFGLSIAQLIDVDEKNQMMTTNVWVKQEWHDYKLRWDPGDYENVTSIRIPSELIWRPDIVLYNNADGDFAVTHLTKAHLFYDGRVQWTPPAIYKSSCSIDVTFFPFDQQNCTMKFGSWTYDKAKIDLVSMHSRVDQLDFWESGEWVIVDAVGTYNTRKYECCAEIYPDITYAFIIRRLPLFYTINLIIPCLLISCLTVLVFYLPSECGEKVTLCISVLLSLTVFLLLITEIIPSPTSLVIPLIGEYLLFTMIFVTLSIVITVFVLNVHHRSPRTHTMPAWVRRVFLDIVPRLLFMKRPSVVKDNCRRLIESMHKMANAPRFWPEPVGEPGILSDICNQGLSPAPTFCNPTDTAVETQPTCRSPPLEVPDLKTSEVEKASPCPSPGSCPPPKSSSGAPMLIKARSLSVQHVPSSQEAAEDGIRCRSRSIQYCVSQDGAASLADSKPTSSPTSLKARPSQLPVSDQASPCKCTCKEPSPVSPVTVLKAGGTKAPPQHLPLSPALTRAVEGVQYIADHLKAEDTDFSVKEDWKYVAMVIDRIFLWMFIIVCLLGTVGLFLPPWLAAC
Sequence of α4β2 nicotine receptor (P12390 25-500): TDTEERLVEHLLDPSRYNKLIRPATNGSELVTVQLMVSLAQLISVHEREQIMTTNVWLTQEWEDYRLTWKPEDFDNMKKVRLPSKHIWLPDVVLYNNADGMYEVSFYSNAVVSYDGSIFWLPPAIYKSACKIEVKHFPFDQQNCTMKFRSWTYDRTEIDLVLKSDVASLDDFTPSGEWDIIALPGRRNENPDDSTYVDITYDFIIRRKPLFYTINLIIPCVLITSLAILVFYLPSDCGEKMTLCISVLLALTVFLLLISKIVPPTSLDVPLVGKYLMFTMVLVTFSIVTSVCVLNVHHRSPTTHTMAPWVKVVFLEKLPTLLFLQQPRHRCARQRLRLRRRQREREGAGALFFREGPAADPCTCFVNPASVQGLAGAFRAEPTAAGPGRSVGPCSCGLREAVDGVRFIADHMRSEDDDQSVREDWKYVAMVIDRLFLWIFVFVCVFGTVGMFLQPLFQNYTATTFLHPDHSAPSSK
Sequence of serotonin transporter (P31645 whole entry): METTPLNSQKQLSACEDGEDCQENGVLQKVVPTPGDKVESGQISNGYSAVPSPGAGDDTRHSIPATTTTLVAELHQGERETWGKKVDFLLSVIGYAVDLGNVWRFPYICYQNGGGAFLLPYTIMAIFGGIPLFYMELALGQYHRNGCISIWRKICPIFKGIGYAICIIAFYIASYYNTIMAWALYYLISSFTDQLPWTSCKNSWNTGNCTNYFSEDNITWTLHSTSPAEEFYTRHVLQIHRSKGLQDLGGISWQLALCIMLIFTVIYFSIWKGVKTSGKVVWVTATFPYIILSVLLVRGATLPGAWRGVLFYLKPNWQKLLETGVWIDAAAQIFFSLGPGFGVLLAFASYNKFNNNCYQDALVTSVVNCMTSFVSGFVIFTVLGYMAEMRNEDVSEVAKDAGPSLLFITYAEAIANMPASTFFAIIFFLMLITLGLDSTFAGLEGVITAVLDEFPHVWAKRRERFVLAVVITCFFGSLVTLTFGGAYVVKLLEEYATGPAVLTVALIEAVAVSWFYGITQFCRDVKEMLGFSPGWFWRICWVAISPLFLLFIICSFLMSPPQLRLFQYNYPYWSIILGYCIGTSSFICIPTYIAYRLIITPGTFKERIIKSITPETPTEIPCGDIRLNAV
Sequence of dopamine D2 receptors (P14416 whole entry): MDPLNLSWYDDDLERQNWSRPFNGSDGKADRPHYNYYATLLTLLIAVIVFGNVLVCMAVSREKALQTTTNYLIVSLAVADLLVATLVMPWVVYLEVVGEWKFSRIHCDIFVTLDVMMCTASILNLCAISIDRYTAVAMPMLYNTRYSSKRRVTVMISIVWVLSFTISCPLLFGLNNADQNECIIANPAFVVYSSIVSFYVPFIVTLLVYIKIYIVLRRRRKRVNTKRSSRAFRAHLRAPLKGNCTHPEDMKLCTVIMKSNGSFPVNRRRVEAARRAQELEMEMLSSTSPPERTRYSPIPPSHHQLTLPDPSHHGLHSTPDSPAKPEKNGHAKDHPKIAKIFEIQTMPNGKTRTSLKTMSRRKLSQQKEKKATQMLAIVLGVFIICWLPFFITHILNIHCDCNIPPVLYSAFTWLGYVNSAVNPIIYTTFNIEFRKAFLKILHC
Sequence of dopamine transporter (Q01959 whole entry): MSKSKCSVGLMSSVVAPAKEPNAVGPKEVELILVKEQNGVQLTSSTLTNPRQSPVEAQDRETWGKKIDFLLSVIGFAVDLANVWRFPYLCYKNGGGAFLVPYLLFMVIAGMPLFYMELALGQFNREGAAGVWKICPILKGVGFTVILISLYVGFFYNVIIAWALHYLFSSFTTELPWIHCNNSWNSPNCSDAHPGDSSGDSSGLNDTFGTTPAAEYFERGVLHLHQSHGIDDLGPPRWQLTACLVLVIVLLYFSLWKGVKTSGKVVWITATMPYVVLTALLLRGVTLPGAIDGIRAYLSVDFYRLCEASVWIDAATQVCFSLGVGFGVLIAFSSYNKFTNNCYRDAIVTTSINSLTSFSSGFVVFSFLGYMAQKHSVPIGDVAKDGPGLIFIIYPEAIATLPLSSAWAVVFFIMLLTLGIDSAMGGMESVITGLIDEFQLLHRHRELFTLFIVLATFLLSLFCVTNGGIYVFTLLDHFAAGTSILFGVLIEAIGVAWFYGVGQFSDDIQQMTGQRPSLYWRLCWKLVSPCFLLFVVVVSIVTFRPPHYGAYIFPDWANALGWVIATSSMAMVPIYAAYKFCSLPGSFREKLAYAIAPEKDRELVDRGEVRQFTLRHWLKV
Sequence of α4β2 nicotinic acetylcholine receptor subtype (P09483 31-630): as the sequence (P09483 31-630) above
Sequence of α4β2 nicotinic acetylcholine receptor subtype (P12390 25-500): as the sequence (P12390 25-500) above
Sequence of α7 subtype (P36544 23-502): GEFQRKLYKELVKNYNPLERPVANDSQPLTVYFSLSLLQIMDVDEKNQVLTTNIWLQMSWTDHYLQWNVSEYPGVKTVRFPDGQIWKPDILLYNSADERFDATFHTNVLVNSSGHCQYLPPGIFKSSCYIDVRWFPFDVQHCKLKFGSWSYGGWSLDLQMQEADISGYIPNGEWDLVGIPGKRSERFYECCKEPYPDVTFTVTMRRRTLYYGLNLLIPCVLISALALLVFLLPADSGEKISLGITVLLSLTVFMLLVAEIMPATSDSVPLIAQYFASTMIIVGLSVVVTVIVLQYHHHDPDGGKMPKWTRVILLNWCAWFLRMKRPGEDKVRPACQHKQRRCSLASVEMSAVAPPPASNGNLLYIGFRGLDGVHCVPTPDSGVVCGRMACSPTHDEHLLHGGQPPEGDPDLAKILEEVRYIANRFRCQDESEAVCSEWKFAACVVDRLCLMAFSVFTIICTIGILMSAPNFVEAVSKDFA
Sequence of neuronal [3H]-cytisine binding site (P43681 29-627): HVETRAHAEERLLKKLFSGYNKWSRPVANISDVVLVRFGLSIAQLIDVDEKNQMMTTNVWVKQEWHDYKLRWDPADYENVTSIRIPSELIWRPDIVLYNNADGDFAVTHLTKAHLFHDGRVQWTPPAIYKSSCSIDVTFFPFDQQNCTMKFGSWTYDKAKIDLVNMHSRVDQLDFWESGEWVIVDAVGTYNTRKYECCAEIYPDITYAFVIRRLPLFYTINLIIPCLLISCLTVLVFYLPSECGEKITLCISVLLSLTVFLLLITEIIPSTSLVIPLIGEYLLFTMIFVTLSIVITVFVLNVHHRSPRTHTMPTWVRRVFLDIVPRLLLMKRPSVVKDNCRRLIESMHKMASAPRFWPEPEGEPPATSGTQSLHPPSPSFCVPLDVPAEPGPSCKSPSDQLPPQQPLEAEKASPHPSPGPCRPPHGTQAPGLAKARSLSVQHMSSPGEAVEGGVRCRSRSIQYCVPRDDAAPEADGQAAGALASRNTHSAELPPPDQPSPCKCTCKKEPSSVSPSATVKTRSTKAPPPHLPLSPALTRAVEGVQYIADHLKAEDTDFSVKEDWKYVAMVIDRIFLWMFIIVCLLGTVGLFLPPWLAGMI
Sequence of neuronal [3H]-cytisine binding site (P17787 26-502): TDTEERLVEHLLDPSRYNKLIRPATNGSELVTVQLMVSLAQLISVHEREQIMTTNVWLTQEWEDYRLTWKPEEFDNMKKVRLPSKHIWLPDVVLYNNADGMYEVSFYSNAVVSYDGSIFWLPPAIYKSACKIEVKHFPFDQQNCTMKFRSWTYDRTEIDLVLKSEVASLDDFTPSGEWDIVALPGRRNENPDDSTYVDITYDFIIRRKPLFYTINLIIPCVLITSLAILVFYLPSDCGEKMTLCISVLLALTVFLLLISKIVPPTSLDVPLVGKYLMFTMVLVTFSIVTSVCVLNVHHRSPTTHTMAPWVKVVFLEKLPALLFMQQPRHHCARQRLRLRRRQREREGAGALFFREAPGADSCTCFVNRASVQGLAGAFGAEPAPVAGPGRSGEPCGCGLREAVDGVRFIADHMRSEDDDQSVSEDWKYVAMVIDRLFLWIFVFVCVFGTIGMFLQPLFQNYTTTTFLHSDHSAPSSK

Ki (α4β2 nicotine receptor; [7]): 7.91 µM
SMILES: CN1CCCCC1CC1=Cc2ccccc2C1 (racemic) [Compound 13, 1-Methyl-2-(2-indenyl)methylpiperidine hydrochloride]

Ki (α4β2 nicotine receptor; [7]): 8.95 µM
SMILES: COc1ccc2c(c1)CC(CC1CCCCN1C)=C2 (racemic) [Compound 14, 1-Methyl-2-(6-methoxyinden-2-yl)methylpiperidine hydrochloride]

Ki (α4β2 nicotine receptor; [7]): > 10 µM
SMILES: CN1CCCCC1CC1=Cc2ccc(O)cc2C1 (racemic) [Compound 15, 1-Methyl-2-(6-hydroxyinden-2-yl)methylpiperidine hydrochloride]

SMILES: CN1CCCCC1C1CCc2ccccc2O1 (single isomer, unassigned) (as salt: salt) [Compound 1, erythro-2-(1-Methylpiperidin-2-yl)chroman]
melting point: 164 to 166 °C

SMILES: CN1CCCCC1C1CCc2ccccc2O1 (single isomer, unassigned) [Compound 1, erythro-2-(1-Methylpiperidin-2-yl)chroman]
Ki (dopamine D2 receptors): > 10 µM
Ki (dopamine transporter): > 10 µM
Ki (serotonin transporter): > 10 µM
peak response of 86Rb+ release (in words) [1]: could match the peak response of S-(−)-nicotine
potency to stimulate the release of 86Rb+ (in words) [1]: lower potency
stimulation of [3H]dopamine release (in words) (striatal synaptosomes): failed to stimulate the release

SMILES: CN1CCCCC1C1CCc2ccc(O)cc2O1 (single isomer, unassigned) [Compound 8, threo-7-Hydroxy-2-(1-methylpiperidin-2-yl)chroman]
Ki (dopamine D2 receptors): > 10 µM
Ki (dopamine transporter): > 10 µM
Ki (serotonin transporter): > 10 µM

SMILES: CN1CCCC1C1CCc2ccc(O)cc2O1 (single isomer, unassigned) [Compound 11, erythro-7-Hydroxy-2-(1-methylpyrrolidin-2-yl)chroman]
stimulation of [3H]dopamine release (in words) (striatal synaptosomes; FIG. 10, compound 1 at doses of up to 10 μM): stimulates the release
[3H]Dopamine release (striatal synaptosomes; Table 2 summary in words): High intrinsic activity
[3H]ACh release (hippocampal synaptosomes; Table 2 summary in words): No intrinsic activity
stimulation of [3H]ACh release (in words) (hippocampal synaptosomes; cortical synaptosomes as worded, FIG. 11): little intrinsic activity
exploration times versus saline-treated controls (in words) ([2]; exploration phase, 1 μmol/kg/day): not significantly different
time spent exploring the new object ([2]; recognition phase four hours after exploration, after 7 days s.c. osmotic mini pump, compound 11 1 μmol/kg/day, ARICEPT 1 mg/kg/day): 80.5±5 % (SEM)

SMILES: Cc1ncccc1OC[C@@H]1CCCN1 [ABT-089 (S)]
less potent than ABT-594 as an inhibitor of [3H]-nicotine binding [3]: about 300 fold

SMILES: Cc1cc([C@@H]2CCCN2C)on1 [ABT-418]
Ki [4]: 0.0045 µM

SMILES: COc1cc2c(cc1OC)C(=O)C(CC1CCN(Cc3ccccc3)CC1)C2 (centres unmarked) [ARICEPT, reference compound]
time spent exploring the new object ([2]; rat, in vivo): 60.1±5.4 % (SEM)

SMILES: CN1CCCCC1C1CCc2ccc(O)cc2O1 (stereo not drawn) [Compound 3, erythro-7-Hydroxy-2-(1-methylpiperidin-2-yl)chroman]
Ki (dopamine D2 receptors): > 10 µM
Ki (dopamine transporter): > 10 µM
Ki (serotonin transporter): > 10 µM
potency to stimulate the release of 86Rb+ (in words) ([1]; compound 3 at 1, 5, 10 and 100 μM, compound 1 at 10 and 100 μM, versus S-(−)-nicotine, FIG. 9): comparable potency
concentration at which peak effects on [3H]dopamine release are obtained (striatal synaptosomes): ~10 µM
effect on K+-evoked release of [3H]dopamine (in words) (striatal synaptosomes): appeared to suppress
stimulation of [3H]dopamine release (in words) (striatal synaptosomes): dose-dependent stimulation
stimulation of [3H]ACh release (in words) (hippocampal synaptosomes): can stimulate the release
inhibition of tactile sensitivity (in words) (nerve-injured mice; intrathecal 30, 60 and 100 pmol): dose-dependent inhibition
inhibition of tactile sensitivity (nerve-injured mice; intrathecal, highest dose tested 100 pmol, FIG. 13): 60%
time of death post-injection (Male Wistar rats; male, Wistar, ip): ≤ 4 min
lethal effects antagonized by mecamylamine pretreatment (Male Wistar rats): three of the four animals
observed effect after administration (Male Wistar rats; ip): severe convulsions

SMILES: CN1CCCCC1C1CCc2ccc(O)cc2O1 (stereo not drawn) [Compound 4, erythro-7-Hydroxy-2-(1-methylpiperidin-2-yl)chroman]
86Rb+ efflux [1]: High intrinsic activity
[3H]Dopamine release (striatal synaptosomes): Low to moderate activity
[3H]ACh release (hippocampal synaptosomes): High intrinsic activity

SMILES: CN1CCCCC1C1CCc2c(O)cccc2O1 (stereo not drawn) [Compound 5, erythro-5-Hydroxy-2-(1-methylpiperidin-2-yl)chroman]
Ki (dopamine D2 receptors): > 10 µM
Ki (dopamine transporter): > 10 µM
Ki (serotonin transporter): > 10 µM

SMILES: O=c1cccc2n1C[C@@H]1CNC[C@H]2C1 [Cytisine, reference compound]
Ki (α4β2 nicotine receptor; Ki-[3H]Cytisine): 0.0009 µM
Ki (α4β2 nicotine receptor; read-out: Ki-[3H]Cytisine): 0.00278 µM

SMILES: CNCC/C=C/c1cccnc1 [RJR-2403]
Ki (α7 subtype): 36 µM
receptor activation (in words) [5]: does not significantly activate
receptor activation (in words) [6]: does not significantly activate

SMILES: CN1CCC[C@H]1c1cccnc1 [S-(−)-nicotine, reference compound]
stimulation of [3H]dopamine release (in words) (striatal synaptosomes): dose-dependent
